The values that follow come from patent publication US9732093B2, “FLAP modulators” (JANSSEN PHARMACEUTICA NV, priority 2013, dated 2017).

Structures can show the parent of a compound that is named as a salt. Where two headings read alike, the source gives them in different places.

In general, IC50 refers to the concentration at which inhibition is half-maximal. The low end stands for higher potency, the high end for lower potency. What is called Ki is a dissociation constant, usually derived from enzyme kinetics or from competition with a known ligand.

In assay [1] the test system is leukotriene pathway in human whole blood. The assay can be described thus: Human whole blood assay (LTB4 levels after A23187 stimulation). The class given is cell-based. The protocol: (§1) The ability of the compounds of the present invention to treat a FLAP-mediated disease and/or disorder, or associated symptoms or complications thereof, was determined using the following procedures. Binding assay data represent the average value obtained from two different assay plates, with samples run in duplicate on each plate. Human whole blood assay data represent a single replicate on an assay plate using whole blood from at least one healthy donor.
An in vitro cellular assay was performed using human whole blood collected in heparin-containing tubes, which was used to test the ability of compounds to modulate the leukotriene pathway in human whole blood. The blood was diluted 1:1 in RPMI medium, pre-incubated for 15 min at 37° Celsius with test compounds at various concentrations, and then stimulated with calcium ionophore, A23187 (7 μg/mL), for 30 min at 37° Celsius. The samples were then centrifuged and plasma was removed. The plasma was diluted in assay buffer and LTB4 levels were measured using a commercial kit (Enzo Life Sciences). The concentration of each compound that was required for half-maximal inhibition (modulation) of recombinant enzyme activity (IC50) was calculated by a 4-parameter equation using the program GraphPad Prism (GraphPad software).

Another assay addresses human FLAP (Homo sapiens (Human), UniProt P20292). The assay can be described thus: FLAP binding assay (HTRF format). The protocol: as §1
Data are expressed as a HTRF ratio.

[2] abbreviates: blood diluted 1:1 in RPMI, 15 min pre-incubation, A23187 7 μg/mL for 30 min at 37° Celsius, plasma LTB4.
[3] abbreviates: human whole blood diluted 1:1 in RPMI, A23187 stimulation, Table 6 (additional runs).
Setting [4] is: human FLAP wild type membranes, HTRF format, Table 6 (additional runs).

human FLAP, sequence (P20292 whole entry): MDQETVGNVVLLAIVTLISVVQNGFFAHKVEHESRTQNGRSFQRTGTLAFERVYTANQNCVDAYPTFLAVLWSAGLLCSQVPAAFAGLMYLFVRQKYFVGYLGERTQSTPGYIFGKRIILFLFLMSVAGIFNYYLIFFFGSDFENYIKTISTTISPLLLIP

Regarding “2-(4-Cyclobutyl-2-fluoro-3-{[4-(trifluoromethyl)benzyl]oxy}phenyl)-5H-pyrrolo[2,3-b]pyrazine trifluoroacetate salt [Example 177]”, the values for the IC50 in assay [1] (setting [2]) and in assay [1] (setting [3]) were 771 nM and 892 nM, respectively.
In turn, “5-(4-Cyclobutyl-2-fluoro-3-hydroxyphenyl)pyridin-2-amine [Intermediate F]” had a 50% inhibitory concentration (IC50) in assay [1] (setting [2]) of 1300 nM.
With “5-(4-Cyclobutyl-2-fluoro-3-methoxyphenyl)-1H-pyrrolo[2,3-b]pyridine [Intermediate I]”, the IC50 in assay [1] (setting [2]) and in assay [1] (setting [3]) was 1670 nM throughout.
The compound “6-Cyclobutyl-2-fluoro-3-(5H-pyrrolo[2,3-b]pyrazin-2-yl)phenol [Example 176]” yielded an inhibition constant (Ki) on human FLAP (setting [4]) of approximately 75 nM. Besides, the 50% inhibitory concentration (IC50) in assay [1] (setting [2]) is 892 nM; in assay [1] (setting [3]), 1300 nM.
The compound `Nc1cnc(-c2ccc(C3CCC3)c(OCC(O)Cn3c(=O)[nH]c4ccccc43)c2F)cn1` (racemic) [Example 311, racemic 1-{3-[3-(5-Aminopyrazin-2-yl)-6-cyclobutyl-2-fluorophenoxy]-2-hydroxypropyl}-1,3-dihydro-2H-benzimidazol-2-one] came in with a concentration for half-maximal inhibition (IC50) in assay [1] (setting [3]) of 266 nM.
On human FLAP (setting [4]), `Nc1cnc(-c2ccc(C3CCC3)c(OCc3cccc(C(F)(F)F)c3)c2F)cn1` [Compound 2, 5-(4-Cyclobutyl-2-fluoro-3-{[3-(trifluoromethyl)benzyl]oxy}phenyl)pyrazin-2-amine] displayed an inhibition constant Ki of 86.1 nM. Further, it took 895 nM to reach half-maximal inhibition in assay [1] (setting [3]) (IC50).
In assay [1] (setting [3]), `COc1cc(Oc2c(C3CCC3)ccc(-c3cnc(N)cn3)c2F)ncn1` [Example 97, 5-{4-Cyclobutyl-2-fluoro-3-[(6-methoxypyrimidin-4-yl)oxy]phenyl}pyrazin-2-amine] came in with a concentration for half-maximal inhibition (IC50) of 126 nM.
In assay [1] (setting [3]), `Nc1cnc(-c2ccc(C3CCC3)c(Oc3cc(O)ncn3)c2F)cn1` [Example 98] had an IC50 of 124 nM.
For the compound `Nc1cnc(-c2ccc(C3CCC3)c(Oc3ccnc(N)n3)c2F)cn1` [Example 130, 4-[3-(5-Aminopyrazin-2-yl)-6-cyclobutyl-2-fluorophenoxy]pyrimidin-2-amine], in assay [1] (setting [3]), the IC50 was found to be 21.4 nM.
In the case of `Nc1cnc(-c2ccc(C3CCC3)c(Oc3cc(N)ncn3)c2F)cn1` [Example 136, 6-[3-(5-Aminopyrazin-2-yl)-6-cyclobutyl-2-fluorophenoxy]pyrimidin-4-amine], the Ki on human FLAP (setting [4]) came to 3.9 nM. In assay [1] (setting [3]), this compound showed an IC50 of 56.6 nM.
`NC(=O)c1ccc(Oc2c(C3CCC3)ccc(-c3cnc(N)cn3)c2F)cc1` [Example 155, 4-[3-(5-Aminopyrazin-2-yl)-6-cyclobutyl-2-fluorophenoxy]benzamide]: the half-maximal inhibitory concentration (IC50) in assay [1] (setting [3]) worked out at 128 nM.
Regarding `N#Cc1nc(N)cnc1-c1ccc(C2CCC2)c(OCc2cccc(C(=O)O)c2)c1F` [Example 174, 3-{[3-(5-Amino-3-cyanopyrazin-2-yl)-6-cyclobutyl-2-fluorophenoxy]methyl}benzoic acid], the Ki at human FLAP (setting [4]) was 3.9 nM.
As for `Fc1c(-c2cnc3[nH]ccc3n2)ccc(C2CCC2)c1OCc1ccccc1` [Example 178, 2-[3-(Benzyloxy)-4-cyclobutyl-2-fluorophenyl]-5H-pyrrolo[2.3-b]pyrazine], the inhibitory constant (Ki) on human FLAP (human FLAP-containing membranes, HTRF ligand 25 nM, 2 h, average of two plates, duplicates, read-out: FLAP Binding wild type HTRF Ki) came to 354 nM. The same compound yielded an IC50 in assay [1] (setting [3]) of 771 nM.
In the case of `COc1cc(Oc2c(C(C)(C)C)ccc(-c3cnc(N)cn3)c2F)ncn1` [Example 204, 5-{4-tert-Butyl-2-fluor-3-[(6-methoxypyrimidin-4-yl)oxy]phenyl}pyrazin-2-amine], at human FLAP (setting [4]), the Ki stood at 8.5 nM.
Consider `CC(C)(C)c1ccc(-c2cnc(N)nc2)c(F)c1Oc1ncccn1` [Example 207, 5-[4-tert-Butyl-2-fluoro-3-(pyrimidin-2-yloxy)phenyl]pyrimidin-2-amine], for which the Ki at human FLAP (setting [4]) came to 51.5 nM. The compound also showed an IC50 in assay [1] (setting [3]) of 78 nM.
`CC(C)(C)c1ccc(-c2cnc(N)nc2)c(F)c1Oc1cc(N)ncn1` [Example 208, 5-{3-[(6-Aminopyrimidin-4-yl)oxy]-4-tert-butyl-2-fluorophenyl}pyrimidin-2-amine] yielded a half-inhibitory concentration (IC50) in assay [1] (setting [3]) of 160 nM.
With `CC(C)(C)c1ccc(-c2cnc(N)cn2)cc1OCc1ccccc1` [Example 215, 5-[3-(Benzyloxy)-4-tert-butylphenyl]pyrazin-2-amine], at human FLAP (setting [4]), the affinity, expressed as Ki, was 705 nM.
Still for that read-out and setting: next, `Nc1cnc(-c2ccc(Cl)c(OCc3ccccc3)c2F)cn1` [Example 216, 5-[3-(Benzyloxy)-4-chloro-2-fluorophenyl]pyrazin-2-amine]: 714 nM.
On the same count and under the same terms, next, `Nc1cnc(-c2ccc(C3CCC3)c(OCc3ccccc3)c2)cn1` [Example 217, 5-[3-(Benzyloxy)-4-cyclobutylphenyl]pyrazin-2-amine]: 1040 nM; `CC(C)(C)OC(=O)N1CCCC(COc2c(C3CCC3)ccc(-c3cnc(N)cn3)c2F)C1` (stereo not drawn) [Example 249, tert-Butyl 3-((3-(5-aminopyrazin-2-yl)-6-cyclobutyl-2-fluorophenoxy)methyl)piperidine-1-carboxylate]: 282 nM.
With `CC(C)CNc1nccc(Oc2c(C3CCC3)ccc(-c3cnc(N)cn3)c2F)n1` [Example 261, 4-(3-(5-Aminopyrazin-2-yl)-6-cyclobutyl-2-fluorophenoxy)-N-isobutylpyrimidin-2-amine trifluoroacetic acid salt], affinity on human FLAP (setting [4]) was put at a Ki of 2.2 nM.
As for `Nc1cnc(-c2ccc(C3CCC3)c(OCC3CCOCC3)c2F)cn1` [Example 264, 5-[4-Cyclobutyl-2-fluoro-3-(tetrahydro-2H-pyran-4-ylmethoxy)phenyl]pyrazin-2-amine], the affinity at human FLAP (setting [4]), expressed as Ki, was 101 nM.
In assay [1] (setting [3]), `N#CCOc1c(C2CCC2)ccc(-c2cnc(N)cn2)c1F` [Example 276, [3-(5-Aminopyrazin-2-yl)-6-cyclobutyl-2-fluorophenoxy]acetonitrile] came in with an IC50 of 1860 nM.
As for `Nc1cnc(-c2ccc(C3CCC3)c(Oc3cccnn3)c2F)cn1` [Example 277, 5-[4-Cyclobutyl-2-fluoro-3-(pyridazin-3-yloxy)phenyl]pyrazin-2-amine], it took 191 nM to reach half-maximal inhibition in assay [1] (setting [3]) (IC50).
The compound `Nc1cnc(-c2ccc(C3CC3)c(Oc3nccc(N)n3)c2F)cn1` [Example 279, 2-[3-(5-Aminopyrazin-2-yl)-6-cyclopropyl-2-fluorophenoxy]pyrimidin-4-amine] registered a half-maximal inhibitory concentration (IC50) in assay [1] (setting [3]) of 114 nM.
As for `COC(=O)c1coc(COc2c(C3CCC3)ccc(-c3cnc(N)cn3)c2F)n1` [Example 281, Methyl 2-{[3-(5-aminopyrazin-2-yl)-6-cyclobutyl-2-fluorophenoxy]methyl}-1,3-oxazole-4-carboxylate trifluoroacetic acid salt], half-maximal inhibition in assay [1] (setting [3]) (IC50) required 453 nM.
On to `Nc1cnc(-c2ccc(C3CCC3)c(OCc3nc4ccccc4s3)c2F)cn1` [Example 283, 5-[3-(1,3-Benzothiazol-2-ylmethoxy)-4-cyclobutyl-2-fluorophenyl]pyrazin-2-amine trifluoroacetic acid salt], for which the IC50 in assay [1] (setting [3]) was determined as 538 nM.
Take `Nc1cnc(-c2ccc(C3CCC3)c(OCCN3C(=O)c4ccccc4C3=O)c2F)cn1` [Example 293, 2-{2-[3-(5-Aminopyrazin-2-yl)-6-cyclobutyl-2-fluorophenoxy]ethyl}-1H-isoindole-1,3(2H)-dione]: in assay [1] (setting [3]), the IC50 was 100 nM.
Consider `Nc1cnc(-c2ccc(C3CCC3)c(OCCNc3cnccn3)c2F)cn1` [Example 295, 5-{4-Cyclobutyl-2-fluoro-3-[2-(pyrazin-2-ylamino)ethoxy]phenyl}pyrazin-2-amine trifluoroacetic acid salt], for which, in assay [1] (setting [3]), the half-inhibitory concentration (IC50) turned out to be 188 nM.
On the same count and under the same terms, for `Nc1cnc(-c2ccc(C3CCC3)c(OCCNc3ncccn3)c2F)cn1` [Example 296, N-{2-[3-(5-Aminopyrazin-2-yl)-6-cyclobutyl-2-fluorophenoxy]ethyl}pyrimidin-2-amine trifluoroacetic acid salt] the value was 283 nM; for `Nc1cnc(-c2ccc(C3CCC3)c(OCCNc3ccncn3)c2F)cn1` [Example 297, N-{2-[3-(5-Aminopyrazin-2-yl)-6-cyclobutyl-2-fluorophenoxy]ethyl}pyrimidin-4-amine], 212 nM.
`Nc1cnc(-c2ccc(C3CCC3)c(OCC3CCNCC3)c2F)cn1` [Example 298, 5-[4-Cyclobutyl-2-fluoro-3-(piperidin-4-ylmethoxy)phenyl]pyrazin-2-amine hydrogen chloride salt] came in with a Ki at human FLAP (setting [4]) of 868 nM.
In assay [1] (setting [3]), `Cc1ccc(-c2cnc(N)cn2)c(F)c1Oc1ncccn1` [Example 314, 5-[2-Fluoro-4-methyl-3-(pyrimidin-2-yloxy)phenyl]pyrazin-2-amine] displayed an IC50 of more than 10000 nM.
`CCc1ccc(-c2cnc(N)cn2)c(F)c1Oc1ncccn1` [Example 316, 5-[4-Ethyl-2-fluoro-3-(pyrimidin-2-yloxy)phenyl]pyrazin-2-amine] had a Ki at human FLAP (setting [4]) of 1360 nM.
The compound `Nc1cnc(-c2ccc(C3CCCCC3)c(Oc3ncccn3)c2F)cn1` [Example 320, 5-(4-Cyclohexyl-2-fluoro-3-(pyrimidin-2-yloxy)phenyl)pyrazin-2-amine] gave an inhibition constant (Ki) on human FLAP (setting [4]) of 36.5 nM.
On human FLAP (setting [4]), `CCc1ccc(-c2cnc(N)cn2)c(F)c1O` [Example 333, 3-(5-Aminopyrazin-2-yl)-6-ethyl-2-fluorophenol] displayed a Ki of 421 nM.
Compound `Nc1cnc(-c2ccc(C3CCC3)c(OCc3ccc(Br)cc3)c2F)cn1` [Example 340, 5-{3-[(4-Bromobenzyl)oxy]4-cyclobutyl-2-fluorophenyl}pyrazin-2-amine] came in with an inhibition constant Ki at human FLAP (setting [4]) of 650 nM.
